Experimental data from publication PMC12528448, “Resistance to CDK7 inhibitors directed by acquired mutation of a conserved residue in cancer cells” (The EMBO Journal, 2025).
“And” between values parts separate entries of the source, which are not always exact repeats. Equal values may be shown once.

Assays:
MCF7 cells = test: IncuCyte confluency growth, MCF7; type: cell-based, human
Procedure: (§1) To determine the IC50 of drug treatments on growth, cells were seeded in 96-well culture plates. Two days after seeding, the cells were treated with increasing concentrations of drugs and incubated for 4 days. Cell number was determined using the SRB assay (Skehan et al, [1990]), and IC50 values were calculated using non-linear regression curve fitting in GraphPad Prism v10. For all other growth experiments, cells were seeded into 96-well plates, and appropriate drugs were added 2 days after seeding. Cells were then incubated in an IncuCyte Zoom live-cell imager, with cell confluency measured every 6 h. Cell doubling times were determined by non-linear curve fitting (exponential growth equation) in GraphPad Prism v10.

[1] = system: MCF7-CDK4^D99N (CL1) cells; test: IncuCyte confluency growth, homozygous CDK4 D99N clone CL1; type: cell-based, human
Procedure: as §1

`CC(=O)c1c(C)c2cnc(Nc3ccc(N4CCNCC4)cn3)nc2n(C2CCCC2)c1=O` [Palbociclib] was tested, and the “% Conluency” value (MCF7 cells; MCF7, 50nM Palbociclib, 48 Hours) was 21.09% and 17.14% and 31.73%, the “% Conluency” value (MCF7 cells; MCF7, 50nM Palbociclib, 60 Hours) was 26.85% and 21.06% and 38.57% and the “% Conluency” value (MCF7 cells; MCF7, 50nM Palbociclib, 72 Hours) was 33.08% and 25.69% and 49.56%. The “% Conluency” value (MCF7 cells; MCF7, 50nM Palbociclib, 84 Hours) was 42.76% and 32.56% and 62.06%, the “% Conluency” value (MCF7 cells; MCF7, 50nM Palbociclib, 96 Hours) was 53.46% and 40.59% and 75.59% and the “% Conluency” value (MCF7 cells; MCF7, 50nM Palbociclib, 120 Hours) was 76.28% and 61.62% and 89.48%. For the same compound, the “% Conluency” value (MCF7 cells; MCF7, 50nM Palbociclib, 132 Hours) was 87.22% and 71.34% and 95.67%, the “% Conluency” value (MCF7 cells; MCF7, 50nM Palbociclib, 144 Hours) was 95.25% and 77.28% and 98.12% and the “% Conluency” value (MCF7 cells; MCF7, 100nM Palbociclib, 48 Hours) was 20.67% and 15.77% and 27.22%. For the same compound, the “% Conluency” value (MCF7 cells; MCF7, 100nM Palbociclib, 60 Hours) was 25.56% and 18.66% and 32.25%, the “% Conluency” value (MCF7 cells; MCF7, 100nM Palbociclib, 72 Hours) was 32.06% and 22.38% and 39.17% and the “% Conluency” value (MCF7 cells; MCF7, 100nM Palbociclib, 84 Hours) was 40.13% and 28.06% and 49.01%. For the same compound, the “% Conluency” value (MCF7 cells; MCF7, 100nM Palbociclib, 96 Hours) was 50.09% and 33.82% and 60.83%, the “% Conluency” value (MCF7 cells; MCF7, 100nM Palbociclib, 120 Hours) was 70.64% and 49.63% and 77.85% and the “% Conluency” value (MCF7 cells; MCF7, 100nM Palbociclib, 132 Hours) was 77.85% and 58.56% and 85.38%. The “% Conluency” value (MCF7 cells; MCF7, 100nM Palbociclib, 144 Hours) was 87.15%, the “% Conluency” value (MCF7 cells; MCF7, 500nM Palbociclib, 48 Hours) was 17.33% and 13.43% and 25.36% and the “% Conluency” value (MCF7 cells; MCF7, 500nM Palbociclib, 60 Hours) was 19.30% and 15.00% and 28.50%. The “% Conluency” value (MCF7 cells; MCF7, 500nM Palbociclib, 72 Hours) was 22.35% and 16.89% and 33.09%, the “% Conluency” value (MCF7 cells; MCF7, 500nM Palbociclib, 120 Hours) was 35.55% and 26.80% and 51.35% and the “% Conluency” value (MCF7 cells; MCF7, 500nM Palbociclib, 132 Hours) was 36.87% and 29.33% and 55.68%. The “% Conluency” value (MCF7 cells; MCF7, 500nM Palbociclib, 144 Hours) was 41.22% and 32.10% and 58.75%, the “% Conluency” value (MCF7 cells; MCF7, 1000nM Palbociclib, 48 Hours) was 16.59% and 13.44% and 21.86% and the “% Conluency” value (MCF7 cells; MCF7, 1000nM Palbociclib, 60 Hours) was 18.56% and 14.52% and 24.10%. For the same compound, the “% Conluency” value (MCF7 cells; MCF7, 1000nM Palbociclib, 72 Hours) was 20.73% and 16.23% and 26.86%, the “% Conluency” value (MCF7 cells; MCF7, 1000nM Palbociclib, 84 Hours) was 23.01% and 18.11% and 30.06% and the “% Conluency” value (MCF7 cells; MCF7, 1000nM Palbociclib, 96 Hours) was 25.25% and 20.25% and 34.64%. For the same compound, the “% Conluency” value (MCF7 cells; MCF7, 1000nM Palbociclib, 120 Hours) was 30.07% and 24.29% and 38.56%, the “% Conluency” value (MCF7 cells; MCF7, 1000nM Palbociclib, 132 Hours) was 30.94% and 26.42% and 40.12% and the “% Conluency” value (MCF7 cells; MCF7, 1000nM Palbociclib, 144 Hours) was 33.62% and 26.11% and 42.54%. For the same compound, the Doubling time (MCF7 cells; MCF7, 1 µM Palbociclib) was 138.9 (95% CI = 96.8–238.0) h, the “Increase of doubling time vs vehicle” value (MCF7 cells; MCF7, 1 µM Palbociclib) was “fivefold” and the Confluency (MCF7 cells; MCF7, 1 µM Palbociclib, at 250 h) was 50%. For the same compound, the “Growth inhibition” value (MCF7 cells; MCF7, IncuCyte) was “growth inhibited by Palbociclib in a dose-dependent manner”, the “% Confluency” value ([1]; MCF7 CDK4 D99N/D99N CL1, 50nM Palbociclib, 0 Hours) was 4.47% and 7.41% and 8.54% and the “% Confluency” value ([1]; MCF7 CDK4 D99N/D99N CL1, 50nM Palbociclib, 12 Hours) was 6.57% and 10.81% and 12.65%. For the same compound, the “% Confluency” value ([1]; MCF7 CDK4 D99N/D99N CL1, 50nM Palbociclib, 24 Hours) was 7.94% and 14.04% and 16.28%, the “% Confluency” value ([1]; MCF7 CDK4 D99N/D99N CL1, 50nM Palbociclib, 36 Hours) was 9.96% and 16.26% and 19.65% and the “% Confluency” value ([1]; MCF7 CDK4 D99N/D99N CL1, 50nM Palbociclib, 60 Hours) was 16.05% and 25.67% and 31.53%. For the same compound, the “% Confluency” value ([1]; MCF7 CDK4 D99N/D99N CL1, 50nM Palbociclib, 72 Hours) was 20.59% and 33.83% and 40.66%, the “% Confluency” value ([1]; MCF7 CDK4 D99N/D99N CL1, 100nM Palbociclib, 0 Hours) was 5.11% and 7.96% and 8.92% and the “% Confluency” value ([1]; MCF7 CDK4 D99N/D99N CL1, 100nM Palbociclib, 12 Hours) was 7.75% and 11.79% and 13.54%. The “% Confluency” value ([1]; MCF7 CDK4 D99N/D99N CL1, 100nM Palbociclib, 24 Hours) was 9.54% and 15.28% and 17.18%, the “% Confluency” value ([1]; MCF7 CDK4 D99N/D99N CL1, 100nM Palbociclib, 36 Hours) was 11.96% and 17.72% and 19.72% and the “% Confluency” value ([1]; MCF7 CDK4 D99N/D99N CL1, 100nM Palbociclib, 48 Hours) was 15.88% and 21.63% and 24.14%. For the same compound, the “% Confluency” value ([1]; MCF7 CDK4 D99N/D99N CL1, 100nM Palbociclib, 60 Hours) was 19.72% and 27.06% and 29.56%, the “% Confluency” value ([1]; MCF7 CDK4 D99N/D99N CL1, 100nM Palbociclib, 72 Hours) was 25.72% and 33.76% and 37.42% and the “% Confluency” value ([1]; MCF7 CDK4 D99N/D99N CL1, 100nM Palbociclib, 84 Hours) was 33.55% and 43.80% and 49.43%. The “% Confluency” value ([1]; MCF7 CDK4 D99N/D99N CL1, 100nM Palbociclib, 96 Hours) was 44.26% and 56.08% and 62.73%, the “% Confluency” value ([1]; MCF7 CDK4 D99N/D99N CL1, 500nM Palbociclib, 0 Hours) was 4.28% and 7.96% and 8.62% and the “% Confluency” value ([1]; MCF7 CDK4 D99N/D99N CL1, 500nM Palbociclib, 12 Hours) was 6.49% and 11.80% and 13.50%. For the same compound, the “% Confluency” value ([1]; MCF7 CDK4 D99N/D99N CL1, 500nM Palbociclib, 24 Hours) was 8.63% and 14.98% and 17.24%, the “% Confluency” value ([1]; MCF7 CDK4 D99N/D99N CL1, 500nM Palbociclib, 36 Hours) was 10.70% and 16.67% and 18.25% and the “% Confluency” value ([1]; MCF7 CDK4 D99N/D99N CL1, 500nM Palbociclib, 48 Hours) was 13.35% and 19.15% and 19.83%.
